In ChEMBL document CHEMBL1130634, “Quinazolines: combined type 3 and 4 phosphodiesterase inhibitors” (Bioorg Med Chem Lett, 1998) one finds IC50 data, which are given here for 20 molecules.

Test [1] has as its target 3',5'-cyclic-AMP phosphodiesterase 4D (Homo sapiens, UniProt Q08499). Kind of test: Evaluated for its ability to inhibit PDE4D.
Test [2] concerns the target T1, 3',5'-cyclic-AMP phosphodiesterase 4A (Homo sapiens, UniProt P27815). Kind of test: Evaluated for its ability to inhibit PDE4A.
The target of another test is Phosphodiesterase 3 (Homo sapiens, UniProt Q14432+Q13370). The test is described as follows: Evaluated for its ability to inhibit PDE3. The class given is protein assay.
Test [3] concerns the target T2, Phosphodiesterase 4 (Rattus norvegicus, UniProt P14270+P14646+P14644+P54748). Kind of test: Evaluated for the inhibition of [3H]rolipram binding to membrane-bound PDE4.
The target in test [4] is T3, 3',5'-cyclic-AMP phosphodiesterase 4B (Rattus norvegicus, UniProt P14646).
T3 sequence (P14646 whole entry): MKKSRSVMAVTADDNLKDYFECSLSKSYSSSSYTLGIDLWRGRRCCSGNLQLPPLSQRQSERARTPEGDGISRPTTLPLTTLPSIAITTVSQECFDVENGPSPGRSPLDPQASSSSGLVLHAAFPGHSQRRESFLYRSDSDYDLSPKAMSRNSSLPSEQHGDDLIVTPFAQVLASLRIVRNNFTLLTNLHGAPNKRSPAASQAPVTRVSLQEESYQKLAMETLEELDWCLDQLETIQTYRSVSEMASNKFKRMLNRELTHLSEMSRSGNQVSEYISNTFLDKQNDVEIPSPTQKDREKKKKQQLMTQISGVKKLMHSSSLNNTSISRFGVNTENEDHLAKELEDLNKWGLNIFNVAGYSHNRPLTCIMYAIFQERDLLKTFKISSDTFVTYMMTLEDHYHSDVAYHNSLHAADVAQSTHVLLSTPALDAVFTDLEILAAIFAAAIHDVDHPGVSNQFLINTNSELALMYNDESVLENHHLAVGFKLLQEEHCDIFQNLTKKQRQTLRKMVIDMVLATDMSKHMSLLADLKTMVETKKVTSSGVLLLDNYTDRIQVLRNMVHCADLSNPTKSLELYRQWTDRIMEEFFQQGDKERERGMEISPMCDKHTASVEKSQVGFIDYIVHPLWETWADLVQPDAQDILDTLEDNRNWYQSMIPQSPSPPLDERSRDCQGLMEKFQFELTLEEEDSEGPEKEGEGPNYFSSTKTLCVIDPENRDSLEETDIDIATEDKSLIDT
Kind of test: Evaluated for its ability to inhibit PDE4B.

Test [5] deals with T1, 3',5'-cyclic-AMP phosphodiesterase 4A. Kind of test: Inhibition of PDE4A.
Test [6] addresses T2, Phosphodiesterase 4. Kind of test: Inhibition of [3H]-rolipram binding to membrane-bound PDE4.

Sequence of 3',5'-cyclic-AMP phosphodiesterase 4D (Q08499 whole entry): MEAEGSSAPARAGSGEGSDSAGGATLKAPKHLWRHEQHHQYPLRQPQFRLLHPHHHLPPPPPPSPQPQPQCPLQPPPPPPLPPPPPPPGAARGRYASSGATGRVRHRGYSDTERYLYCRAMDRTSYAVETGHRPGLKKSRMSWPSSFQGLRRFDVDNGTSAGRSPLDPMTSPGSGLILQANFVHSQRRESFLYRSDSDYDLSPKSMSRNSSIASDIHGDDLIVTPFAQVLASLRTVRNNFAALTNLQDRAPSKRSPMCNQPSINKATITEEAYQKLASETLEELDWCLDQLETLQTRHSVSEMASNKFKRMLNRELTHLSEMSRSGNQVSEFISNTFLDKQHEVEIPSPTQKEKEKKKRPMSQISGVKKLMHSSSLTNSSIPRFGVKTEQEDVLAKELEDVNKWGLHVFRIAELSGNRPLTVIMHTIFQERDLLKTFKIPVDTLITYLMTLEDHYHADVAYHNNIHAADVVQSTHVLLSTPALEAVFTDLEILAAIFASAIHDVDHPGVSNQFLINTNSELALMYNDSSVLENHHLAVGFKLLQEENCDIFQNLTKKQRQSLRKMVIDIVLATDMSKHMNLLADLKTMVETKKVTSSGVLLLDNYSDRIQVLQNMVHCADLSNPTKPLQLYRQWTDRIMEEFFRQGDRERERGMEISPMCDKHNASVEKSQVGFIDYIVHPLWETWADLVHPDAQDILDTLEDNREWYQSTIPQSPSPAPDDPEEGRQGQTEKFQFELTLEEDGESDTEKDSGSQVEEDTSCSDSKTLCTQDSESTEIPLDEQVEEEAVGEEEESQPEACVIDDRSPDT
T1 sequence (P27815 whole entry): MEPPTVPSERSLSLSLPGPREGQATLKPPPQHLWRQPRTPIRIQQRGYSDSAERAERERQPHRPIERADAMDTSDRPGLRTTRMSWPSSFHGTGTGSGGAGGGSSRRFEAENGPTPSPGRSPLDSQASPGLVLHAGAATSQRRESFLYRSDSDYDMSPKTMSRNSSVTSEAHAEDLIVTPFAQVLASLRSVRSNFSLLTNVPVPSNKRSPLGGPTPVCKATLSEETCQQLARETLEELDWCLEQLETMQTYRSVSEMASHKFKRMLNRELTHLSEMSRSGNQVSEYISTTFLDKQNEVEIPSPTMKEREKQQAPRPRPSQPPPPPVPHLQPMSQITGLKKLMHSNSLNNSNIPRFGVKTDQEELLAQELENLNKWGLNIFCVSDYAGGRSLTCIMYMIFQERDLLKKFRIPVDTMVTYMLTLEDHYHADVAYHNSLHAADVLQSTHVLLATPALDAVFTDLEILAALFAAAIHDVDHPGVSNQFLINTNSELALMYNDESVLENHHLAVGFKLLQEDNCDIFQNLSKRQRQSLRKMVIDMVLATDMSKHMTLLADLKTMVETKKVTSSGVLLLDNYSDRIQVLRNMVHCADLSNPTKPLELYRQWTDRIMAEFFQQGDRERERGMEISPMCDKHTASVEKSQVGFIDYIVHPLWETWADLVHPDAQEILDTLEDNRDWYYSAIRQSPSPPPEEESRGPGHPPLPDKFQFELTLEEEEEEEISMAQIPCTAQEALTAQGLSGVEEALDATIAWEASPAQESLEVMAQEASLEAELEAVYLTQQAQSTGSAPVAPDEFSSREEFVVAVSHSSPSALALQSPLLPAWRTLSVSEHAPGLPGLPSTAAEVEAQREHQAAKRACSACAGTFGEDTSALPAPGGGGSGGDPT

In the case of `CCc1nc(-c2cc(OCC3CC3)cc(OCC3CC3)c2)c2cc(OC)c(OCCO)cc2n1`, the IC50 in test [1] was found to be 22 nM; in test [2], 30 nM; at Phosphodiesterase 3, 16 nM; on Phosphodiesterase 4 [3], 15 nM; in test [4], 25 nM.

For `COc1cc2nc(C)nc(-c3cc(O)cc(O)c3)c2cc1OC`, the results for the IC50 in test [1], in test [5] and in test [4] were 2000 nM, 23500 nM and 14000 nM, respectively.

With `COc1cc2c(-c3cc(OCC4CC4)cc(OCC4CC4)c3)nc(NCCCO)nc2cc1OCCO`, the IC50 in test [1] was 230 nM; in test [2] it was 500 nM; at Phosphodiesterase 3, 430 nM; on Phosphodiesterase 4 [3], 200 nM; in test [4], 340 nM.

Turning to `COc1cc2c(-c3cc(OCC4CC4)cc(OCC4CC4)c3)nc(OCCO)nc2cc1OCCO`, the IC50 was 90 nM in test [1], 70 nM in test [2], 430 nM at Phosphodiesterase 3 and 80 nM in test [4].

On to `COc1cc2c(-c3cc(OCC4CC4)cc(OCC4CC4)c3)nc(N3CCOCC3)nc2cc1OCCO`, for which the IC50 in test [1] turned out to be 1200 nM; in test [2], 3300 nM; in test [4] it was 2500 nM.

Regarding `CCc1nc(-c2cc(OCC3CC3)cc(OCC3CC3)c2)c2cc(OC)c(OCc3ccccc3)cc2n1`, the IC50 in test [1], in test [2] and in test [4] was over 100000 nM throughout.

`CCc1nc(-c2cc(OCC3CC3)cc(OCC3CC3)c2)c2ccc(OCCO)cc2n1`: the values for the IC50 in test [1], in test [2] and in test [4] were 850 nM, 630 nM and 660 nM, respectively.

Turning to `COc1cc2nc(C)nc(-c3cc(OC(C)C)cc(OC(C)C)c3)c2cc1OC`, the IC50 was found to be 1200 nM in test [1], 2300 nM in test [2] and 1300 nM in test [4].

Consider `COc1cc2c(-c3cc(OCC4CC4)cc(OCC4CC4)c3)nc(-c3cc(OCC4CC4)cc(OCC4CC4)c3)nc2cc1OCCO`, for which the IC50 in test [1] was found to be 8500 nM; in test [2], 14000 nM; against Phosphodiesterase 3, 7800 nM; in test [4], 22000 nM.

With `CCOC(=O)COc1cc2nc(C)nc(-c3cc(OCC4CC4)cc(OCC4CC4)c3)c2cc1OC`, the IC50 in test [1] is over 100000 nM; in test [2], over 10000 nM; against Phosphodiesterase 3, 700 nM; in test [4], 61000 nM.

On to `COc1cc2c(-c3cc(OCC4CC4)cc(OCC4CC4)c3)nc(OCCCO)nc2cc1OCCO`, for which the half-maximal inhibitory concentration (IC50) was found to be 130 nM in test [1]; 250 nM in test [2]; 310 nM against Phosphodiesterase 3; 145 nM on Phosphodiesterase 4 [3]; 200 nM in test [4].

For the molecule `CCc1nc(-c2cc(OCC3CC3)cc(OCC3CC3)c2)c2cc(OC)c(O)cc2n1`, the IC50 in test [1] came out at 650 nM; in test [2], 3300 nM; in test [4] it was 2400 nM.

In the case of `COc1cc2nc(C)nc(-c3cc(OCC4CC4)cc(OCC4CC4)c3)c2cc1OC`, the figures for the IC50 in test [1], in test [2] and in test [4] were 800 nM, 900 nM and 650 nM, respectively.

With `COc1nc(-c2cc(OCC3CC3)cc(OCC3CC3)c2)c2cc(OC)c(OCCO)cc2n1`, the IC50 stood at 140 nM in test [1]; 130 nM in test [2]; 390 nM against Phosphodiesterase 3; 210 nM on Phosphodiesterase 4 [3]; 110 nM in test [4].

As to `CCSc1nc(-c2cc(OCC3CC3)cc(OCC3CC3)c2)c2cc(OC)c(OCCO)cc2n1`, the IC50 in test [1] is 700 nM; in test [2], 540 nM; in test [4], 440 nM.

On to `COc1cc2c(-c3cc(OCC4CC4)cc(OCC4CC4)c3)nc(-c3cccs3)nc2cc1OCCO`, for which the IC50 in test [1] stood at 3000 nM; in test [2] it was 5400 nM; in test [4] it was 1300 nM.

On to `CCc1nc(-c2cc(OCC3CC3)cc(OCC3CC3)c2)c2cc(OC)c(OCC3CC3)cc2n1`, for which the IC50 in test [1] amounted to 540 nM; in test [2], 2900 nM; in test [4], 600 nM.

For `CCOc1nc(-c2cc(OCC3CC3)cc(OCC3CC3)c2)c2cc(OC)c(OCCO)cc2n1`, the IC50 came to 60 nM in test [1]; 85 nM in test [2]; 340 nM on Phosphodiesterase 3; 43 nM at Phosphodiesterase 4 [3]; 70 nM in test [4].

As for `CCc1nc(-c2cc(OCC3CC3)cc(OCC3CC3)c2)c2cc(OCCO)c(OCCO)cc2n1`, the IC50 in test [1], in test [2] and in test [4] was over 100000 nM in each case.

Regarding `CCCCc1nc(-c2cc(OCC3CC3)cc(OCC3CC3)c2)c2cc(OC)c(OCCO)cc2n1`, the IC50 was 300 nM in test [1]; 1300 nM in test [2]; 720 nM on Phosphodiesterase 3; 300 nM in test [4]; 50 nM on Phosphodiesterase 4 [6].

By IC50 is commonly meant the midpoint of a concentration-inhibition curve. Read a low IC50 as inhibition by little substance.
